These are literature values, as cited in PMC7468272 (Acta Pharmacologica Sinica, 2019).

For this data set, the system named is CBP/p300.

As for `CO[C@H]1CC[C@H](n2c([C@@H]3CCCC(=O)N3c3ccc(F)c(F)c3)nc3cc(-c4c(C)noc4C)ccc32)CC1` [CCS1477], the “affinity for CBP/p300” value was “single-digit nanomolar affinity”.
